BindingDB's records for doi:10.1021/cc1000488 (German University In Cairo, 2010)

Biological target: Mitogen-activated protein kinase 14 (Homo sapiens, UniProt Q16539)
Experiment: P38 MAP Kinase Assay
Settings: pH 7.5; 37 °C
Excerpt: Kinase assay using p38alpha MAP.

Sequence of Mitogen-activated protein kinase 14 (Q16539 whole entry): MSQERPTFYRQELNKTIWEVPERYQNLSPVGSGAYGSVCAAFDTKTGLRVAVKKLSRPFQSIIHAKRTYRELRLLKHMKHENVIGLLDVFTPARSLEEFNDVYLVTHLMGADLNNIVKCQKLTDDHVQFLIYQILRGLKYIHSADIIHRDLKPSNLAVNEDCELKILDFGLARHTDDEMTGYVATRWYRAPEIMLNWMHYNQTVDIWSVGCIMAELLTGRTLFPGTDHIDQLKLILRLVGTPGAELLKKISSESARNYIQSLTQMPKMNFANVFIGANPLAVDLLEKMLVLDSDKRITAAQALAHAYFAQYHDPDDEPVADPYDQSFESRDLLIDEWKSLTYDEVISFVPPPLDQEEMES

Structure (SMILES)	IC50 [nM]
N#Cc1c(-c2cccnc2)cc(-c2ccc(Br)cc2)nc1N [MAP Kinase Inhibitor, 3]	3700
N#Cc1c(-c2c[nH]c3ccccc23)cc(-c2ccc(Br)cc2)nc1N [MAP Kinase Inhibitor, 6]	2650
N#Cc1c(-c2ccc(Cl)c(Cl)c2)cc(-c2ccc(Br)cc2)[nH]c1=O [MAP Kinase Inhibitor, 11]	120
N#Cc1c(-c2ccc(Br)cc2)cc(-c2ccc(Br)cc2)[nH]c1=O [MAP Kinase Inhibitor, 14]	4400

Now from value to compound:

IC50 [nM]	Structure (SMILES)
2000	COc1cc(-c2cc(-c3ccc(Br)cc3)nc(N)c2C#N)cc(OC)c1OC [MAP Kinase Inhibitor, 1]
70	Cc1ccc(-c2cc(-c3ccc(Br)cc3)nc(N)c2C#N)o1 [MAP Kinase Inhibitor, 2]
3680	N#Cc1c(-c2ccc(Cl)c(Cl)c2)cc(-c2ccc(Br)cc2)nc1N [MAP Kinase Inhibitor, 4]
760	N#Cc1c(-c2ccc(Br)cc2)cc(-c2ccc(Br)cc2)nc1N [MAP Kinase Inhibitor, 7]
1220	COc1cc(-c2cc(-c3ccc(Br)cc3)[nH]c(=O)c2C#N)cc(OC)c1OC [MAP Kinase Inhibitor, 8]
